# Measured values published in patent US11103564B2, “Compositions for the inhibition of Giardia lamblia” (INSTITUT NATIONAL DE LA RECHERCHE AGRONOMIQUE, priority 2014, dated 2021).
# Where two headings read alike, the source gives them in different places.
# Legend:
# [1] = tested on: G. lamblia trophozoites; experiment: In vitro G. lamblia growth inhibition assay; format: cell-based, Giardia lamblia; settings: for IC50: KM-FCS; for inhibitory activity on G. lamblia growth: KM-FCS culture medium, without BSH
# [2] = tested on: Giardia trophozoite cultures; experiment: Screening of lactobacilli strain supernatants for G. lamblia growth inhibition; format: cell-based, Giardia lamblia; settings: supernatant, 24 h at 37° C., with bovine bile 0.6 g/L
# Procedure: The inhibitory effect on G. lamblia growth of different lactobacilli strains was screened (cf. table 5). Bacterial supernatant was co-incubated for 24 h at 37° C. with Giardia trophozoite cultures (triplicates), with or without bovine bile (0.6 g/L). […] Table 5 indicates the corresponding internal and official references of the bacterial strains, and bibliographic references.
# [3] = BSH activity on taurodeoxycholic / glycodeoxycholic LB agar; format: biochemical; settings: taurodeoxycholic (0.3%) and glycodeoxycholic (0.3%) LB agar, 48 h at 37° C.
# [4] = tested on: G. lamblia WB clone C6; experiment: In vivo effect of BSH-47 against G. lamblia in neonatal mice; settings: daily gavage day 10 to 15, vs PBS
# Procedure: FIG. 13: G. lamblia trophozoites count in the small intestine. Mice were challenged with the trophozoites of G. lamblia WB clone C6 (10^5 trophozoites per animal) at day 10 Animals were treated either with PBS or BSH-47 at 1 μg/ml (0.5 μg per mice), 10 μg/ml (5 μg per mice) or 100 μg/ml (50μg/mice) by daily intragastric gavage until day 15 (n=10 to 11/group). Values are mean±SEM; p<0.05.
# Solutions of recombinant BSH-47 solutions (1 μg/ml, 10 μg/ml and 100 μg/ml diluted in NaHCO3 16.4%) were thawed and daily administered by intragastric gavage to neonatal mice (dose were respectively […] per mice) from day 10 to day 15 (day of sacrifice). Control animals received PBS instead of BSH.
# [5] = format: biochemical
# [6] = tested on: G. lamblia trophozoites; experiment: Effect of recombinant LjLa1 BSH on Giardia trophozoites cultures; format: cell-based, Giardia lamblia
# [7] = Giardia duodenalis, absence of LjLa1sn, trophozoites growth inhibition, read-out: IC50 +/− SD, with culture medium only
# [8] = Giardia duodenalis, presence of LjLa1sn, read-out: IC50 +/− SD, with bacterial spent culture medium
# [9] = absence of LjLa1sn, trophozoites growth inhibition, read-out: IC50 +/− SD, with culture medium only
# [10] = presence of LjLa1sn, read-out: IC50 +/− SD, with bacterial spent culture medium
# [11] = 0.0001 μg/ml to 10 μg/ml, presence of bovine bile (0.06 g/L)
molecule,measurement,setting,value
"C[C@H](CCC(=O)NCC(=O)O)[C@H]1CC[C@H]2[C@@H]3CC[C@@H]4C[C@H](O)CC[C@]4(C)[C@H]3C[C@H](O)[C@]12C [GDC, Glycodesoxycholate]",IC50,[1]; [7],> 400 µM
same,IC50,[1]; [8],104 µM
same,inhibitory activity on G. lamblia growth,[1],no inhibitory activity
"C[C@H](CCC(=O)O)[C@H]1CC[C@H]2[C@@H]3[C@H](O)C[C@@H]4C[C@H](O)CC[C@]4(C)[C@H]3C[C@H](O)[C@]12C [C, Cholate]",IC50,[1]; [9],> 400 µM
same,IC50,[1]; [10],> 400 µM
"C[C@H](CCC(=O)NCC(=O)O)[C@H]1CC[C@H]2[C@@H]3[C@H](O)C[C@@H]4C[C@H](O)CC[C@]4(C)[C@H]3CC[C@]12C [GCDC, Glycochenodesoxycholate]",IC50,[1]; [7],> 400 µM
same,IC50,[1]; [8],110 µM
same,inhibitory activity on G. lamblia growth,[1],no inhibitory activity
Lactobacillus reuteri,inhibitory effect on G. lamblia growth,[2],potent inhibitors
Desoxycholate [DC],IC50,[1]; [9],132 µM
same,IC50,[1]; [10],117 µM
"CC(=O)O[C@H]1C[C@@]2(C)[C@@H](C[C@@H](O)[C@H]3[C@@]4(C)CC[C@@H](O)[C@@H](C)[C@@H]4CC[C@@]32C)/C1=C(\CCC=C(C)C)C(=O)O [FA, Fusidic acid]",IC50,[1]; [7],26 µM
"C[C@H](CCC(=O)NCCS(=O)(=O)O)[C@H]1CC[C@H]2[C@@H]3[C@H](O)C[C@@H]4C[C@H](O)CC[C@]4(C)[C@H]3CC[C@]12C [TCDC, Taurochenodesoxycholate]",IC50,[1]; [7],> 400 µM
same,IC50,[1]; [8],115 µM
same,inhibitory activity on G. lamblia growth,[1],no inhibitory activity
Lactobacillus acidophilus,inhibitory effect on G. lamblia growth,[2],potent inhibitors
"C[C@H](CCC(=O)O)[C@H]1CC[C@H]2[C@@H]3[C@H](O)C[C@@H]4C[C@H](O)CC[C@]4(C)[C@H]3CC[C@]12C [CDC, Chenodesoxycholate]",IC50,[1]; [7],147 µM
same,IC50,[1]; [8],118 µM
"C[C@H](CCC(=O)NCCS(=O)(=O)O)[C@H]1CC[C@H]2[C@@H]3CC[C@@H]4C[C@H](O)CC[C@]4(C)[C@H]3C[C@H](O)[C@]12C [TDC, Taurodesoxycholate]",inhibitory activity on G. lamblia growth,[1],no inhibitory activity
same,IC50,[1]; [9],> 400 µM
same,IC50,[1]; [10],79 µM
"C[C@H](CCC(=O)NCC(=O)O)[C@H]1CC[C@H]2[C@@H]3[C@H](O)C[C@@H]4C[C@H](O)CC[C@]4(C)[C@H]3C[C@H](O)[C@]12C [GC, Glycocholate]",IC50,[1]; [7],> 400 µM
same,IC50,[1]; [8],> 400 µM
"BSH-47: recombinant L. johnsonii La1 bile-salt hydrolase LJ1147 produced in E. coli, His-Tag purified (protein, His-tag; Lactobacillus johnsonii BSH-47, recombinant L. johnsonii La1 bile-salt hydrolase LJ1147 produced in E. coli, His-Tag purified) MCTSILYSPKDNYFGRNLDYEIAYGQKVVITPRNYQLNYRHLPTQDTHYAMIGVSVVANDYPLYCDAINEKGLGIAGLNFTGPGKYFSVDESKKNVTSFELIPYLLSNCETIEDVKKLLSETNITDESFSKDLPVTTLHWLMGDKSGKSIVIESTETGLHVYDNPVNTLTNNPVFPAQVETLANFASVSPAQPKNTLVPNADINLYSRGLGTHHLPGGTDSNSRFIKASFVLAHSPKGNDEVENVTNFFHVLHSVEQAKGTDEVEDNVFEFTMYSDCMNLDKGILYFTTYDNNQINAVDMNNEDLGTSDLITYELFKDQAIKFEN",substrate specificity on agar,[3],taurospecific
same,parasite load in the small intestine,[4]; 100 μg/ml group,significant reduction
same,trophozoites load in the small intestine,"[4]; all groups: 1, 10 and 100 μg/ml",reduction in trophozoites load
same,Specific activity,[5]; glycine release,0.066 μmole of glycine/5 min at 37°
same,Specific activity,[5]; taurine release,0.717 μmole taurine/5 min at 37° C./
same,inhibitory effect on G. lamblia trophozoites,[6]; [11],strong inhibitory effects
same,effect on Giardia trophozoites cultures,"[6]; 0.96 U, with bovine bile (0.06 g/L)",exhibits an inhibiting effect
same,inhibitory effect on G. lamblia trophozoites,[6]; without bovine bile,no inhibitory effect
"BSH-56: recombinant L. johnsonii La1 bile-salt hydrolase LJ0056 produced as BSH-47 (protein, Lactobacillus johnsonii BSH-56) MCTGLRFTDDQGNLYFGRNLDVGQDYGEGVIITPRNYPLPYKFLDNTTTKKAVIGMGIVVDGYPSYFDCYNEDGLGIAGLNFPHFAKFSDGPIDGKINLASYEIMLWVTQNFTHVSEVKEALKNVNLVNEAINTSFAVAPLHWIISDSDEAIIVEVSKQYGMKVFDDKVGVLTNSPDFNWHLTNLGNYTGLNPHDATAQSWNGQKVAPWGVGTGSLGLPGDSIPADRFVKAAYLNVNYPTAKGEKANVAKFFNILKSVAMIKGSVVNDQGKDEYTVYTACYSSGSKTYYCNFEDDFELKTYKLDDHTMNSTSLVTY",Specific activity,[5]; glycine release,0.536 μmole of glycine/5 min at 37°
same,Specific activity,[5]; taurine release,2.604 μmole taurine/5 min at 37° C./
same,inhibitory effect on G. lamblia trophozoites,[6]; [11],strong inhibitory effects
same,inhibitory effect on G. lamblia trophozoites,[6]; without bovine bile,no inhibitory effect
